Where two headings read alike, the source gives them in different places.
What was measured:
FIPV 3CL^pro = FIPV 3CL^pro (Feline coronavirus, UniProt Q98VG9); assay: FIPV 3CLpro protease inhibition assay; assay type: biochemical, feline infectious peritonitis virus (FIPV strain 79–1146); conditions: for IC50: 35 nM enzyme, 6 μM fluorogenic substrate
FIPV strain 79–1146 [1] = assay: Antiviral assay, post-viral entry activity; assay type: cell-based, feline infectious peritonitis virus; conditions: for EC50: read-out: Post-viral entry EC50, IPMA; for Post-viral entry SI: SI = CC50/EC50
FIPV strain 79–1146 [2] = assay: Antiviral assay, pre-viral entry activity; assay type: cell-based, feline infectious peritonitis virus; conditions: for EC50: read-out: Pre-viral entry EC50, IPMA, 24 h; for Pre-viral entry SI: SI = CC50/EC50
CRFK cells = assay: Cytotoxicity assay; assay type: cell-based, feline; conditions: read-out: Cytotoxicity CC50, 48 h, MTS assay
FIPV strain 79–1146 [3] = assay: Antiviral assay, prophylactic activity; assay type: cell-based, feline infectious peritonitis virus; conditions: for EC50: read-out: Prophylactic antiviral activity EC50, IPMA; for Prophylactic antiviral activity SI: SI = CC50/EC50; for concentration that completely protects the cells from virus infection: prophylactic or protective activity
FIPV strain 79–1146 [4] = assay: Antiviral assay in FIPV-infected CRFK cells, summary over the test conditions; assay type: cell-based, feline infectious peritonitis virus; conditions: for control of FIPV infection under all the tested conditions: result in words; for EC50: Alphacoronavirus 1, CRFK, read-out: EC50, range over antiviral test conditions
Cytotoxicity assay = assay type: cell-based, feline; conditions: cat, CRFK cells
3CL^pro of SARS-CoV = conditions: read-out: IC50, 3CL^pro of SARS-CoV; cited from earlier work
HIV-1 integrase = conditions: read-out: IC50, anti-HIV-1 integrase activities; ref Neamati et al., 1997; cited from earlier work
[5] = read-out: Protease inhibition assay (IC50)
[6] = 100 TCID50 FIPV adsorption at 37 °C for 2 h before adding the tested compounds, CRFK cells
[7] = 100 TCID50 FIPV incubation with compounds, CRFK cells
[8] = compound incubation at 37 °C for 2 h before inoculation with FIPV at 100 TCID50/well, CRFK cells
[9] = Protease inhibition assay (IC50)

FIPV 3CL^pro, sequence (Q98VG9 2904-3205 limits assumed): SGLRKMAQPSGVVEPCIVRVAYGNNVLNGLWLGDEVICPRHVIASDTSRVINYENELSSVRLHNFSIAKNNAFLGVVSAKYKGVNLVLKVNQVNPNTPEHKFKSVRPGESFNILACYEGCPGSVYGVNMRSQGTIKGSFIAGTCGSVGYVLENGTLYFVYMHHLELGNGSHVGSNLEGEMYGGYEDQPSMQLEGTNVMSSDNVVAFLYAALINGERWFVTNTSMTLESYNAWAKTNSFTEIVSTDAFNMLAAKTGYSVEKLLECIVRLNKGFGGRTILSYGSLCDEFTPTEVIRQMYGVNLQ

C=C1C[C@@]23CC[C@H]4[C@@](C)(CCC[C@@]4(C)C(=O)O)[C@@H]2CC[C@]1(O)C3 [CID452967]
IC50 (FIPV 3CL^pro; [5]): > 500 µM

O=C1C(=O)N(Cc2ccc(Cc3ccc(CN4C(=O)C(=O)c5ccccc54)cc3)cc2)c2ccccc21 [CID3821945]
EC50 (FIPV strain 79–1146 [1]; [6]): > 100 µM
EC50 (FIPV strain 79–1146 [2]; [7]): > 100 µM
CC50 (CRFK cells): 306.8 ± 0.175 µM
EC50 (FIPV strain 79–1146 [3]; [8]): > 200 µM
IC50 (FIPV 3CL^pro; [5]): 10.3 ± 2.5 µM
control of FIPV infection under all the tested conditions (FIPV strain 79–1146 [4]): could not control FIPV infection

COc1cc(O)c2c(=O)cc(-c3ccc(O)c(O)c3)oc2c1 [CID5318214]
EC50 (FIPV strain 79–1146 [1]; [6]): > 100 µM
EC50 (FIPV strain 79–1146 [2]; [7]): > 100 µM
CC50 (CRFK cells): 339.3 ± 0.03 µM
EC50 (FIPV strain 79–1146 [3]; [8]): > 200 µM
IC50 (FIPV 3CL^pro; [5]): 28.5 ± 4.2 µM
control of FIPV infection under all the tested conditions (FIPV strain 79–1146 [4]): could not control FIPV infection

Cc1ccc(S(=O)(=O)N/N=C\C=C\c2ccccc2)cc1 [CID5372747]
EC50 (FIPV strain 79–1146 [1]; [6]): > 200 µM
EC50 (FIPV strain 79–1146 [2]; [7]): > 100 µM
CC50 (CRFK cells): 336.2 ± 0.13 µM
EC50 (FIPV strain 79–1146 [3]; [8]): > 200 µM
IC50 (FIPV 3CL^pro; [5]): 78.4 ± 2.6 µM
control of FIPV infection under all the tested conditions (FIPV strain 79–1146 [4]): could not control FIPV infection

C[C@@H]1O[C@@H](Oc2cc(O)c3c(=O)c(O)c(-c4ccc(O)c(O)c4)oc3c2)[C@H](O)[C@H](O)[C@H]1O [CID5748601]
EC50 (FIPV strain 79–1146 [1]; [6]): > 100 µM
EC50 (FIPV strain 79–1146 [2]; [7]): > 100 µM
CC50 (CRFK cells): 425.3 ± 0.13 µM
EC50 (FIPV strain 79–1146 [3]; [8]): > 200 µM
IC50 (FIPV 3CL^pro; [5]): 77.2 ± 13.8 µM
control of FIPV infection under all the tested conditions (FIPV strain 79–1146 [4]): could not control FIPV infection

O=c1cc(-c2ccc(O)c(O)c2)oc2cc(OCc3ccccc3)cc(O)c12 [CID71313853]
IC50 (FIPV 3CL^pro; [5]): > 500 µM

Cc1cccc(C)c1OCC(=O)N[C@@H](Cc1ccccc1)[C@@H](O)C[C@H](Cc1ccccc1)NC(=O)[C@H](C(C)C)N1CCCNC1=O [Lopinavir, reference compound]
EC50 (FIPV strain 79–1146 [1]; Alphacoronavirus 1, CRFK): 5.38 ± 2.32 µM
Post-viral entry SI (FIPV strain 79–1146 [1]): 97.83
EC50 (FIPV strain 79–1146 [2]; Alphacoronavirus 1, CRFK): 8.56 ± 0.47 µM
Pre-viral entry SI (FIPV strain 79–1146 [2]): 61.52
CC50 at 48 h (Cytotoxicity assay): > 500 µM
IC50 (3CL^pro of SARS-CoV): ~50 µM
EC50 (FIPV strain 79–1146 [3]; Alphacoronavirus 1, CRFK): 31.7 ± 1.37 µM
Prophylactic antiviral activity SI (FIPV strain 79–1146 [3]): 16.61
EC50 (FIPV strain 79–1146 [4]): 5.38 to 31.7 µM

CC[C@](C)(O)C(=O)O[C@H]1C(=O)O[C@@H]2C[C@H]3C(C)=C[C@H](O)[C@@H](O)[C@]3(C)[C@H]3[C@]4(O)OC[C@]32[C@@H]1[C@@H](C)[C@H]4O [NSC14975]
IC50 (FIPV 3CL^pro; [9]): > 500 µM

O=C1c2cc(O)c(O)cc2OC(c2ccc(O)c(O)c2)C1O (centres unmarked) [NSC36398]
IC50 (FIPV 3CL^pro; [5]): > 500 µM

C[C@]1(O)CC[C@H]2[C@@H]3CC[C@H]4C[C@@H](O)CC[C@]4(C)[C@@]3(F)[C@@H](O)C[C@@]21C [NSC38273]
IC50 (FIPV 3CL^pro; [5]): > 500 µM

COc1cc(C)c2c(c1C=O)Oc1c(c(C)c(O)c3c1C(O)OC3=O)OC2=O (centres unmarked) [NSC87511, Stictic acid]
EC50 (FIPV strain 79–1146 [1]; Alphacoronavirus 1, CRFK): 21.8 ± 1.64 µM
Post-viral entry SI (FIPV strain 79–1146 [1]): 17.04
EC50 (FIPV strain 79–1146 [2]; Alphacoronavirus 1, CRFK): 16.2 ± 1.33 µM
Pre-viral entry SI (FIPV strain 79–1146 [2]): 22.90
CC50 at 48 h (Cytotoxicity assay): 371.9 ± 0.26 µM
EC50 (FIPV strain 79–1146 [3]; Alphacoronavirus 1, CRFK): 26.9 ± 1.25 µM
Prophylactic antiviral activity SI (FIPV strain 79–1146 [3]): 13.80
concentration that completely protects the cells from virus infection (FIPV strain 79–1146 [3]; CRFK cells): 20 to 50 µM
Ki (FIPV 3CL^pro; Ki value, competitive inhibition, 35 nM FIPV 3CL^pro, substrate 3 to 40 μM): 17 ± 1.8 µM
IC50 (FIPV 3CL^pro; [9]): 29.4 ± 4.6 µM
IC50 (HIV-1 integrase): < 50 µM

CC[C@H]1CN2CCc3cc(OC)c(OC)cc3[C@@H]2C[C@@H]1C[C@H]1NCCc2c1[nH]c1ccc(O)cc21 [NSC131547]
IC50 (FIPV 3CL^pro; [5]): > 500 µM

C/C(=C\COc1ccc2ccc(=O)oc2c1)C1=CC(=O)C(C)(C)O1 [NSC142227]
IC50 (FIPV 3CL^pro; [5]): > 500 µM

CC(=O)O[C@@H]1[C@@H](O)C2=C3[C@]4(C)[C@@H]1C(C)(C)C(=O)C[C@@H]4[C@]3(O)[C@H](OC(C)=O)[C@@]1(C[C@@H]1C)C2=O [NSC270914]
IC50 (FIPV 3CL^pro; [5]): > 500 µM

CO[C@H]1C[C@@H]2\C=C(C)/C=C/C=C\C(=O)N[C@H](c3ccccc3)C/C=C/CC[C@H](O)CC(=O)C2=C1O [NSC343256, Hitachimycin]
Post-viral entry SI (FIPV strain 79–1146 [1]): 2.77
EC50 (FIPV strain 79–1146 [1]; [6]): 4 ± 0.37 µM
Pre-viral entry SI (FIPV strain 79–1146 [2]): 2.89
EC50 (FIPV strain 79–1146 [2]; [7]): 3.83 ± 0.44 µM
CC50 (CRFK cells): 56.9 ± 0.73 µM
concentration that completely protects the cells from virus infection (FIPV strain 79–1146 [3]; CRFK cells): 20 to 50 µM
EC50 (FIPV strain 79–1146 [3]; [8]): 16.2 ± 1.23 µM
IC50 (FIPV 3CL^pro; [5]): 24.5 ± 8.9 µM

CC1Oc2cc3c(-c4c(O)cc(O)c5c(O)c6c(cc45)OC(C)C(C)C6=O)c(O)cc(O)c3c(O)c2C(=O)C1C (centres unmarked) [NSC345647, Chaetochromin]
Post-viral entry SI (FIPV strain 79–1146 [1]): 2.20
EC50 (FIPV strain 79–1146 [1]; [6]): 4.87 ± 0.12 µM
Pre-viral entry SI (FIPV strain 79–1146 [2]): 8.88
EC50 (FIPV strain 79–1146 [2]; [7]): 1.19 ± 0.95 µM
CC50 (CRFK cells): 10.5 ± 0.13 µM
Prophylactic antiviral activity SI (FIPV strain 79–1146 [3]): 3.69
concentration that completely protects the cells from virus infection (FIPV strain 79–1146 [3]; CRFK cells): 20 to 50 µM
EC50 (FIPV strain 79–1146 [3]; [8]): 2.85 ± 0.52 µM
IC50 (FIPV 3CL^pro; [5]): 6.3 ± 2.1 µM

NC(=O)c1ncn([C@@H]2O[C@H](CO)[C@@H](O)[C@H]2O)n1 [Ribavirin, reference compound]
EC50 (FIPV strain 79–1146 [1]; Alphacoronavirus 1, CRFK): 73.98 ± 0.18 µM
Post-viral entry SI (FIPV strain 79–1146 [1]): 16.96
EC50 (FIPV strain 79–1146 [2]; Alphacoronavirus 1, CRFK): 48.9 ± 1.77 µM
Pre-viral entry SI (FIPV strain 79–1146 [2]): 25.68
CC50 at 48 h (Cytotoxicity assay): > 500 µM
EC50 (FIPV strain 79–1146 [3]; Alphacoronavirus 1, CRFK): > 200 µM
antiviral effect in the prophylaxis study (FIPV strain 79–1146 [3]; result in words): did not show an antiviral effect
EC50 (FIPV strain 79–1146 [4]): 48.9 to 74 µM
